Results from the CheMixHub ionic liquid set.

Test: xn = mol fraction of the nth substance listed

CCCC[n+]1ccc(C)cc1.O=S(=O)([N-]S(=O)(=O)C(F)(F)F)C(F)(F)F + CCOS(=O)(=O)[O-].CC[n+]1ccn(C)c1
100 kPa
Details | viscosity [mPa·s]
293.15 K, x2 = 0.1177 | 86.8
293.15 K, x2 = 0.3341 | 116.8
293.15 K, x2 = 0.558 | 145
303.15 K, x2 = 0.558 | 86.5
303.15 K, x2 = 0.7776 | 89.6
313.15 K, x2 = 0.3341 | 46.2
313.15 K, x2 = 0.6663 | 58.1
313.15 K, x2 = 0.9487 | 53.1
323.15 K, x2 = 0.6663 | 39.8
323.15 K, x2 = 0.7776 | 39.6
333.15 K, x2 = 0.1177 | 18.6
333.15 K, x2 = 0.3341 | 23.1
333.15 K, x2 = 0.558 | 27.4
333.15 K, x2 = 0.6663 | 28.5
343.15 K, x2 = 0.0475 | 13
343.15 K, x2 = 0.1177 | 14
343.15 K, x2 = 0.6663 | 21
343.15 K, x2 = 0.7776 | 21
343.15 K, x2 = 0.9487 | 19.9
353.15 K, x2 = 0.0475 | 10.3
353.15 K, x2 = 0.226 | 12.2

CC[n+]1ccn(C)c1C.F[B-](F)(F)F + CC(C)=O
viscosity [mPa·s], 101.3 kPa
Details | x1 = 0.02954 | x1 = 0.06403 | x1 = 0.1051 | x1 = 0.1544 | x1 = 0.215 | x1 = 0.2913 | x1 = 0.3887 | x1 = 0.5201
293.15 K | 0.42 | 0.615 | 0.797 | 1.19 | 1.82 | 3.37 | 7.01 | 15.8
298.15 K | 0.402 | 0.59 | 0.767 | 1.119 | 1.7 | 3.09 | 6.27 | 13.2
303.15 K | 0.384 | 0.563 | 0.726 | 1.048 | 1.59 | 2.81 | 5.66 | 11.59
308.15 K | 0.368 | 0.54 | 0.687 | 0.986 | 1.48 | 2.57 | 5.13 | 10.2
313.15 K | 0.354 | 0.516 | 0.652 | 0.929 | 1.38 | 2.36 | 4.67 | 9.03
318.15 K | 0.34 | 0.496 | 0.62 | 0.874 | 1.29 | 2.16 | 4.26 | 8.14
323.15 K | 0.327 | 0.478 | 0.588 | 0.825 | 1.22 | 1.96 | 3.91 | 7.34

Cc1ccc(S(=O)(=O)O)cc1 + C[N+](C)(C)Cc1ccccc1.[Cl-]
101 kPa, x2 = 0.3
Details | electrical conductivity [S/m] | viscosity [mPa·s]
292.97 K | – | 15200
298 K | – | 12900
302.95 K | – | 8733
307.99 K | – | 5078
308.2 K | 0.05721 | –
313.02 K | – | 2889
313.22 K | 0.08258 | –
317.95 K | – | 1701
318.31 K | 0.1275 | –
323.05 K | – | 1092
323.16 K | 0.187 | –
328.06 K | – | 791
328.17 K | 0.2562 | –
332.98 K | – | 452
333.27 K | 0.345 | –

CC(N)C(=O)[O-].CCCC[n+]1ccn(C)c1C + O
viscosity [mPa·s], 100 kPa
Details | x1 = 0.1003 | x1 = 0.3009 | x1 = 0.6987 | x1 = 1
293.15 K | 22.3 | – | 200 | 370
313.15 K | – | – | 70 | –
318.15 K | – | 18.9 | – | 87

CCCn1cc[n+](C)c1C.O=S(=O)([N-]S(=O)(=O)C(F)(F)F)C(F)(F)F + O=C1CCCO1
100 kPa, frequency 0.005 MHz
Details | electrical conductivity [S/m]
293.15 K, x2 = 0.2006 | 0.28
293.15 K, x2 = 0.6992 | 0.992
293.15 K, x2 = 0.8002 | 1.19
293.15 K, x2 = 0.8999 | 1.2
298.15 K, x2 = 0 | 0.265
303.15 K, x2 = 0.1289 | 0.395
303.15 K, x2 = 0.8508 | 1.5
308.15 K, x2 = 0.2006 | 0.537
308.15 K, x2 = 0.6992 | 1.41
308.15 K, x2 = 0.9495 | 1.11
313.15 K, x2 = 0.6992 | 1.57
313.15 K, x2 = 0.8508 | 1.77
313.15 K, x2 = 0.8999 | 1.68
318.15 K, x2 = 0.4952 | 1.32
323.15 K, x2 = 0.2006 | 0.864

CCCC[n+]1ccn(C)c1.[Br-] + C[C@@H](O)[C@H](N)C(=O)O + O
viscosity [mPa·s], 101.3 kPa
Details | 293.15 K | 298.15 K | 303.15 K | 308.15 K | 313.15 K
x2 = 0, x1 = 0.0007203 | – | – | – | – | 0.674
x2 = 0.0003632, x1 = 0.00072 | 1.028 | 0.918 | 0.825 | 0.748 | 0.682
x2 = 0.0003679, x1 = 0.001439 | 1.053 | 0.943 | 0.85 | 0.773 | 0.707
x2 = 0.0007261, x1 = 0.0007198 | 1.034 | 0.923 | 0.829 | 0.751 | 0.685
x2 = 0.0007318, x1 = 0.001438 | 1.059 | 0.948 | 0.854 | 0.776 | 0.71
x2 = 0.001087, x1 = 0.0007195 | 1.038 | 0.927 | 0.834 | 0.755 | 0.689
x2 = 0.001097, x1 = 0.001438 | 1.064 | 0.952 | 0.859 | 0.78 | 0.714
x2 = 0.001451, x1 = 0.0007192 | 1.043 | 0.932 | 0.838 | 0.76 | 0.693
x2 = 0.001461, x1 = 0.001437 | 1.07 | 0.957 | 0.863 | 0.785 | 0.718
x2 = 0.001813, x1 = 0.000719 | 1.048 | 0.936 | 0.843 | 0.764 | 0.698
x2 = 0.001828, x1 = 0.001437 | 1.075 | 0.961 | 0.868 | 0.789 | 0.723
x2 = 0.002175, x1 = 0.0007187 | 1.053 | 0.941 | 0.847 | 0.769 | 0.702
x2 = 0.002191, x1 = 0.001436 | 1.079 | 0.966 | 0.872 | 0.794 | 0.727
x2 = 0.002537, x1 = 0.0007185 | 1.058 | 0.946 | 0.852 | 0.773 | 0.707
x2 = 0.002557, x1 = 0.001436 | 1.085 | 0.97 | 0.877 | 0.798 | 0.732
